Measured values reported in patent US20170007619A1, “High Dose Dehydroepiandrosterone as Anticancer Treatment With Multi-faceted Reconstitution of Otherwise Depleted Metabolites” (priority 2015, published 2017).
“Also recorded” adds a separate entry of the source.

Assays:
[1] = molecular target: Glucose-6-phosphate dehydrogenase (G6PD) (Homo sapiens, UniProt P11413); conditions: cited from earlier work
[2] = Depletion and reconstitution of metabolites in dogs treated with HD DHEA; assay type: in vivo; conditions: for ubiquinone levels with supplementation in DHEA-treated animals: supplementation with ubiquinone and tocotrienols
Protocol: FIG. 4. […] For IPA quantitation, preliminary in vitro studies were performed in which DHEA-treated and control HT-29SF cells were exposed to [^3H]-mevalonic acid (saponified; data not shown). […] For ease of presentation, pretreatment values for all 3 determinations (BH4, IPA and ubiquinone) were given a value of 1, with treatment values presented as their respective fraction thereof. Male and female dogs had blood or other specimens drawn pretreatment, and then following 90 days of 10 mg/kg DHEA±reconstitution protocol.
FIG. 6. […] Fifteen ml blood samples were drawn and the buffy coat was isolated by low speed centrifugation in the standard manner. […] AMP, ADP and ATP were quantitated. […] For ease of presentation, pretreatment values are presented with a value of 1, with treatment values presented as their respective fraction thereof.
FIG. 8. […] Ten mg of intestinal mucosa was analyzed for each animal. […] Results are presented as percentage of values in pretreatment dogs, mean±SEM.
FIG. 10. […] 24 hour urine was collected from neutered male and female animals in amber glass containment vessels. To 100 ml of urine was added 1 ml of concentrated HCL as preservative. […] These same dogs were then administered DHEA (10 mg/kg)±the reconstitution regimen which included the monoamine mix described above. This treatment continued for 90 days, at which time further urine specimens were collected and assayed for norepinephrine. The data are reported as the mean±SEM.
FIG. 11. […] Before treatment, 10-15 ml blood samples were taken from male and female neutered dogs, and plasma was collected by low speed centrifugation by the standard method.

spontaneous cancers = assay: HD DHEA in cancer stricken dogs (spontaneous cancers, Table 3); assay type: in vivo
From the text: In preliminary experiments we exposed human colonic carcinoma HT29SF cells to various doses of DHEA and assessed the effects of such treatment upon cell cycle kinetics.
Table 3. Decreased tumor volume, increased longevity (compared to historical controls), and improved quality of life in dogs with spontaneous cancers.

[3] = test system: human colonic carcinoma HT29SF cells; assay: Flow cytometric cell cycle analysis of HT-29SF cells exposed to DHEA; assay type: cell-based
[4] = Side effects of HD DHEA and their prevention by reconstitution; assay type: in vivo, dogs; conditions: for DHEA-induced ocular (ophthalmic) inflammation on reconstitution: dogs administered DHEA, IPA (and BH4) added; for susceptibility to infections under DHEA with concurrent reconstitution: dogs and cats; for susceptibility to infections under DHEA with concurrent reconstitution / fluid retention symptoms under DHEA with concurrent reconstitution: concurrent BH4, potassium nitrate and IPA; for fluid retention symptoms under DHEA with concurrent reconstitution: dogs
From the text: Table 1. Physical symptoms associated with HD DHEA-induced Nitric Oxide (NO) depletion.

[5] = test system: 1,2-dimethylhydrazine-induced colonic tumors, which metastasize to the liver; assay: Carcinogen (1,2-dimethylhydrazine)-induced tumors in dogs ± HD DHEA (Table 2); assay type: in vivo
From the text: Table 2. Decreased tumor volume and increased longevity in dogs administered HD DHEA to treat […] tumors. […] Organotropic carcinogens produce tumors in specific organs. Dimethylhydrazine produces exclusively colonic tumors, which metastasize to the liver. In this series of experiments 13 dogs were exposed to DMH only, and 13 were exposed to DMH followed by treatment with HD DHEA.

statin-treated cells = conditions: cited from earlier work
[6] = tissues of animals administered HD DHEA
[7] = tissues of dogs administered HD DHEA
[8] = DMH followed by HD DHEA, Student's t test

Chain of Glucose-6-phosphate dehydrogenase (G6PD) (P11413 whole entry, species assumed): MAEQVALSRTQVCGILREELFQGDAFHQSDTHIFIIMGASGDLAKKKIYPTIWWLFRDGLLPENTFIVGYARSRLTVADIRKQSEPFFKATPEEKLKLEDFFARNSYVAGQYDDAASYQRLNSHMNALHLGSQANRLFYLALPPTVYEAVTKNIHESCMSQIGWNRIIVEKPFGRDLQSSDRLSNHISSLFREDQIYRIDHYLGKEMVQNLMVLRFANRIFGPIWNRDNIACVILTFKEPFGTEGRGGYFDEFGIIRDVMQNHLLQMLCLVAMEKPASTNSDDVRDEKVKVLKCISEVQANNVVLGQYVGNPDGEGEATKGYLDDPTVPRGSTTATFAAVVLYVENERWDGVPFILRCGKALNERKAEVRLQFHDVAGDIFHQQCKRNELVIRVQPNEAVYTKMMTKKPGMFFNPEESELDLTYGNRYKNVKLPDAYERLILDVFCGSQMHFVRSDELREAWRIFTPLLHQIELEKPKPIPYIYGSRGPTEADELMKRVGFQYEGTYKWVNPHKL

Which G6PD inhibition [1] does the source give for `C[C@]12C=CC(=O)C=C1CC[C@@H]1[C@@H]2C(=O)C[C@@]2(C)[C@H]1CC[C@]2(O)C(=O)CO` [prednisone] here?
The G6PD inhibition was “does not inhibit G6PD”.

With tocotrienols as the compound, how does the “combination of ubiquinone and tocotrienols vs ubiquinone alone, retaining ubiquinone levels” value ([2]; DHEA-treated animals) read?
The value was “more effective”.

And the “ubiquinone levels with supplementation in DHEA-treated animals” value [2]?
The value was “maintains normal or near normal ubiquinone levels”.

For `C[C@]12CC[C@H](O)CC1=CC[C@@H]1[C@@H]2CC[C@]2(C)C(=O)CC[C@@H]12` [DHEA, Dehydroepiandrosterone], which longevity (spontaneous cancers; HD DHEA) is on record?
Its longevity is “significant improvements in longevity”.

And the tumor volume (spontaneous cancers; HD DHEA)?
Its tumor volume is “decreases in tumor volume”.

What about the quality of life (spontaneous cancers; HD DHEA supplemented with specific metabolites) of the same compound?
The quality of life was “increases in quality of life”.

What about the “effect on cell cycle kinetics” value ([3]; HT29SF cells exposed to various doses of DHEA) of the same compound?
The value was “arrested cells in the G1 phase of the cell cycle”.

And the “NO level during HD DHEA” value ([2]; animals administered HD DHEA)?
Its value is “depleted”.

And the “total pools of isopentenylated tRNA” value ([2]; buffy coat lymphocytes of dogs treated with DHEA, HPLC)?
The value was “depleted”.

What about the “ubiquinone levels, continuous DHEA treatment” value ([2]; continuous treatment at doses capable of inducing HD DHEA) of the same compound?
The value was “decline; also recorded: depleted”.

What about the “one carbon pool products (e.g., AMP, ADP, ATP; purines, pyrimidines, S-adenosylmethionine) during HD DHEA” value ([2]; dogs administered HD DHEA) of the same compound?
The value was “profoundly depleted”.

What about the “ubiquinone levels, short term DHEA exposure” value ([2]; over the short term) of the same compound?
The value was “increased”.

What about the “BH4 level during HD DHEA” value [2, 6] of the same compound?
The value was “depleted”.

And the “IPA level during HD DHEA” value [2, 6]?
The value was “becomes depleted”.

What about the “important monoamines during HD DHEA” value [2, 7] of the same compound?
The value was “depleted”.

What about the “phenylalanine levels during HD DHEA” value [2, 7] of the same compound?
The value was “increased”.

What about the “side effects observed with HD DHEA” value ([4]; HD DHEA without reconstitution) of the same compound?
The value was “motor incoordination sometimes occurs; also recorded: susceptibility to infections, particularly in the ear and eye; also recorded: induction of vasoconstriction; also recorded: Fluid retention; also recorded: auto-inflammatory-like disorder”.

What about the “number of tumors induced, control vs HD DHEA-treated dogs” value ([5]; 13 dogs DMH only vs 13 DMH followed by HD DHEA) of the same compound?
Its value is “not statistically different”.

And the “number and total weight of hepatic metastases, control vs HD DHEA-treated dogs” value [5, 8]?
Its value is “statistically significant”.

What about the “weight of the individual colonic tumors, control vs HD DHEA-treated dogs” value [5, 8] of the same compound?
The value was “statistically significant”.

What about the G6PD inhibition [1] of the same compound?
Its G6PD inhibition is “potent uncompetitive inhibitor of G6PD”.

Which results are given for `CC(O)C(O)C1CNc2nc(N)[nH]c(=O)c2N1` (stereo not shown) [BH4, tetrahydrobiotperin]?
dopamine, norepinephrine and epinephrine levels on replenishment of BH4 ([2]; DHEA-treated animals): restoring normal or near normal; DHEA-induced ocular (ophthalmic) inflammation on reconstitution [4]: prevents; susceptibility to infections under DHEA with concurrent reconstitution [4]: eliminated; fluid retention symptoms under DHEA with concurrent reconstitution [4]: eliminated

With `CC(C)=CCNc1ncnc2nc[nH]c12` [Isopentenyladenine] as the compound, how does the “activity in restoring DNA synthesis relative to mevalonate” value (statin-treated cells) read?
Its value is “approximately 100 fold”.

With `COC1=C(OC)C(=O)C(C/C=C(\C)CC/C=C(\C)CC/C=C(\C)CC/C=C(\C)CC/C=C(\C)CC/C=C(\C)CC/C=C(\C)CC/C=C(\C)CC/C=C(\C)CCC=C(C)C)=C(C)C1=O` [ubiquinone] as the compound, how does the “combination of ubiquinone and tocotrienols vs ubiquinone alone, retaining ubiquinone levels” value ([2]; DHEA-treated animals) read?
Its value is “more effective”.

What about the “ubiquinone levels with supplementation in DHEA-treated animals” value [2] of the same compound?
Its value is “maintains normal or near normal ubiquinone levels”.

Which results are given for `O=[N+]([O-])[O-].[K+]` [potassium nitrate]?
replenishment of NO in animals undergoing HD DHEA ([2]; potassium nitrate as NO donor): can replenish NO; symptoms associated with NO depletion ([4]; animals undergoing HD DHEA plus potassium nitrate): eliminating; susceptibility to infections under DHEA with concurrent reconstitution [4]: eliminated; fluid retention symptoms under DHEA with concurrent reconstitution [4]: eliminated

With `C[C@@](O)(CCO)CC(=O)O` [mevalonic acid] as the compound, how does the “reversal of DHEA-induced cell cycle arrest” value ([3]; addition of mevalonic acid and nucleosides to DHEA-treated HT29SF cells) read?
The value was “partly or completely reversed”.

With `N[C@@H](Cc1ccc(O)c(O)c1)C(=O)O` [L-DOPA] as the compound, how does the emesis ([4]; dog, in vivo) read?
Its emesis is “can lead to emesis in some dogs”.

Which “DHEA-induced ocular (ophthalmic) inflammation on reconstitution” value [4] does the source give for `CC(C)=CCNc1ncnc2c1ncn2[C@@H]1O[C@H](CO)[C@@H](O)[C@H]1O` [IPA, N6-Δ2-isopentenyladenosine] here?
The value was “prevents; also recorded: completely prevent”.

What about the “susceptibility to infections under DHEA with concurrent reconstitution” value [4] of the same compound?
Its value is “eliminated”.

What about the “fluid retention symptoms under DHEA with concurrent reconstitution” value [4] of the same compound?
The value was “eliminated”.
